Experimental data as given in ChEMBL document CHEMBL5550160, “Leveraging a rationally designed veliparib-based anilide eliciting anti-leukemic effects for the design of pH-responsive polymer nanoformulation” (Eur J Med Chem, 2024).
Calls of active or inactive are those of the source. The calls are words filed in the database; no cut-off is given here.

Tests used:
[1] = target: T1, Protein deacetylase HDAC6 (Homo sapiens) (UniProt Q9UBN7); assay: Inhibition of HDAC6 (unknown origin) using p53 residues 379 to 382 [RHKK(Ac)] as fluorogenic substrate assessed as residual activity at 5.08 x 10^-10M (reference value: 101.06%); conditions: dose 5.08 10^-10M
T1 sequence (whole entry): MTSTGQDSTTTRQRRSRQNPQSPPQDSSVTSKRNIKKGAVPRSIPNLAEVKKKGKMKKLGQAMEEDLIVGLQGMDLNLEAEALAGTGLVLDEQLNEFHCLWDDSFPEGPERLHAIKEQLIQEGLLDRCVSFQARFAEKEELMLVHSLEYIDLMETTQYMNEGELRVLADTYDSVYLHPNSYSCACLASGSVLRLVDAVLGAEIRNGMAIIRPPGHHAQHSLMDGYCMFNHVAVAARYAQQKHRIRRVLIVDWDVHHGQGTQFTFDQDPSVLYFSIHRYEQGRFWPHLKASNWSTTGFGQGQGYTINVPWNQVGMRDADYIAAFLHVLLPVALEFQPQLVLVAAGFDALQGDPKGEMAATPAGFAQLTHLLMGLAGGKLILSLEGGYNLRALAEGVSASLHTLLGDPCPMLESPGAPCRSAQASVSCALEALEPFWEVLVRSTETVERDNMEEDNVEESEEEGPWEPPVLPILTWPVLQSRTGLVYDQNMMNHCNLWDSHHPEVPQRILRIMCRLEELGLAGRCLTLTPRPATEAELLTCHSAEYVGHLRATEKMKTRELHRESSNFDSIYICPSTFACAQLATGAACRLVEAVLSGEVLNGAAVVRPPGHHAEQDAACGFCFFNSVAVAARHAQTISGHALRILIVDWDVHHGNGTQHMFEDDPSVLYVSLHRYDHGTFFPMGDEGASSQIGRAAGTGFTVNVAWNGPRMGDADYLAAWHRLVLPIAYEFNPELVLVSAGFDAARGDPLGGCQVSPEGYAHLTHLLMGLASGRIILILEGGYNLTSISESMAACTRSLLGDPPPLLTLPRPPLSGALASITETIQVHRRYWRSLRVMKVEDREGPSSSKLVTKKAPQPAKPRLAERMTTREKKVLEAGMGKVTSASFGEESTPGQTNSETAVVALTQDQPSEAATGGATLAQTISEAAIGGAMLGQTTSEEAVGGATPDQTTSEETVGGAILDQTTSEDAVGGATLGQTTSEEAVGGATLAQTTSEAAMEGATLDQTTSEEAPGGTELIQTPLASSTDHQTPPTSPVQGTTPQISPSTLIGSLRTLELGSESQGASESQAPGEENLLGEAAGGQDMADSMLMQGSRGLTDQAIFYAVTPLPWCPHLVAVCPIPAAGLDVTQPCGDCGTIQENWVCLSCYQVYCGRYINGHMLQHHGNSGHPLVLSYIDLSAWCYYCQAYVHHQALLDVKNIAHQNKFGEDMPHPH

Histone deacetylase 3 [2] = target: T2, Histone deacetylase 3 (Homo sapiens, UniProt O15379); assay: Inhibition of HDAC3 (unknown origin) using p53 residues 379 to 382 [RHKK(Ac)] as fluorogenic substrate assessed as residual activity at 1.23 x 10^-7M (reference value: 103.08%); conditions: dose 1.23 10^-7M
[3] = target: Histone deacetylase 9 (Homo sapiens) (UniProt Q9UKV0); assay: Inhibition of HDAC9 (unknown origin) assessed as residual activity at 3.70 x 10^-7M (reference value: 97.55%); conditions: dose 3.7 10^-7M
[4] = target: T1, Protein deacetylase HDAC6 (Homo sapiens); assay: Inhibition of HDAC6 (unknown origin) using p53 residues 379 to 382 [RHKK(Ac)] as fluorogenic substrate assessed as residual activity at 3.70 x 10^-7M (reference value: 101.06%); conditions: dose 3.7 10^-7M
HL-60 [5] = assay: Downregulation of PARP-2 protein expression in human HL-60 cells by Western blot analysis; format: functional, cell-based
Histone deacetylase 1 = Histone deacetylase 1 (Homo sapiens, UniProt Q13547); assay: Inhibition of HDAC1 (unknown origin) using p53 residues 379 to 382 [RHKK(Ac)] as fluorogenic substrate assessed as residual activity at 1 x 10^-5M (reference value: 98.06%); conditions: dose 1.0 10^-5M
HL-60 [6] = assay: Induction of autophagy in human HL-60 cells assessed as conversion of LC3-I to LC3-II at 0.5 to 1 times IC50 by Western blot analysis; format: functional, cell-based
[7] = target: T1, Protein deacetylase HDAC6 (Homo sapiens); assay: Inhibition of HDAC6 (unknown origin) using p53 residues 379 to 382 [RHKK(Ac)] as fluorogenic substrate assessed as residual activity at 3.33 x 10^-6M (reference value: 101.06%); conditions: dose 3.33 10^-6M
Histone deacetylase 3 [8] = target: T2, Histone deacetylase 3; assay: Inhibition of HDAC3 (unknown origin) using p53 residues 379 to 382 [RHKK(Ac)] as fluorogenic substrate assessed as residual activity at 1 x 10^-5M (reference value: 103.08%); conditions: dose 1.0 10^-5M
Histone deacetylase 2 = Histone deacetylase 2 (Homo sapiens, UniProt Q92769); assay: Inhibition of HDAC2 (unknown origin) assessed as residual activity at 1.1 x 10^-6M (reference value: 99.81%); conditions: dose 1.1 10^-6M
Histone deacetylase 3 [9] = target: T2, Histone deacetylase 3; assay: Inhibition of HDAC3 (unknown origin) using p53 residues 379 to 382 [RHKK(Ac)] as fluorogenic substrate assessed as residual activity at 3.70 x 10^-7M (reference value: 103.08%); conditions: dose 3.7 10^-7M

T2 sequence (O15379 whole entry, the tested form may be a part): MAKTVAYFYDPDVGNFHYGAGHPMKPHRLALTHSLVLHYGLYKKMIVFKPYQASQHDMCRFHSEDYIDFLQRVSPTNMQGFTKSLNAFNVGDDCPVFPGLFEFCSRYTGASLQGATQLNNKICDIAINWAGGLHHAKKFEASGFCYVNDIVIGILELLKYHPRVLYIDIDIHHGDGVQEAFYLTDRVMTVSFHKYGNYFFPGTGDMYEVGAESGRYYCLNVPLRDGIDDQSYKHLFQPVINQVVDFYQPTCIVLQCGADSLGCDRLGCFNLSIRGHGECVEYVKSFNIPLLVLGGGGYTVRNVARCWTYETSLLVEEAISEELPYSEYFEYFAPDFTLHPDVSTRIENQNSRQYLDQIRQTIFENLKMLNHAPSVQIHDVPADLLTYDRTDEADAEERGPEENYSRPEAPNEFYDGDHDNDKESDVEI
Histone deacetylase 9 (Homo sapiens), sequence (Q9UKV0 whole entry, the tested form may be a part): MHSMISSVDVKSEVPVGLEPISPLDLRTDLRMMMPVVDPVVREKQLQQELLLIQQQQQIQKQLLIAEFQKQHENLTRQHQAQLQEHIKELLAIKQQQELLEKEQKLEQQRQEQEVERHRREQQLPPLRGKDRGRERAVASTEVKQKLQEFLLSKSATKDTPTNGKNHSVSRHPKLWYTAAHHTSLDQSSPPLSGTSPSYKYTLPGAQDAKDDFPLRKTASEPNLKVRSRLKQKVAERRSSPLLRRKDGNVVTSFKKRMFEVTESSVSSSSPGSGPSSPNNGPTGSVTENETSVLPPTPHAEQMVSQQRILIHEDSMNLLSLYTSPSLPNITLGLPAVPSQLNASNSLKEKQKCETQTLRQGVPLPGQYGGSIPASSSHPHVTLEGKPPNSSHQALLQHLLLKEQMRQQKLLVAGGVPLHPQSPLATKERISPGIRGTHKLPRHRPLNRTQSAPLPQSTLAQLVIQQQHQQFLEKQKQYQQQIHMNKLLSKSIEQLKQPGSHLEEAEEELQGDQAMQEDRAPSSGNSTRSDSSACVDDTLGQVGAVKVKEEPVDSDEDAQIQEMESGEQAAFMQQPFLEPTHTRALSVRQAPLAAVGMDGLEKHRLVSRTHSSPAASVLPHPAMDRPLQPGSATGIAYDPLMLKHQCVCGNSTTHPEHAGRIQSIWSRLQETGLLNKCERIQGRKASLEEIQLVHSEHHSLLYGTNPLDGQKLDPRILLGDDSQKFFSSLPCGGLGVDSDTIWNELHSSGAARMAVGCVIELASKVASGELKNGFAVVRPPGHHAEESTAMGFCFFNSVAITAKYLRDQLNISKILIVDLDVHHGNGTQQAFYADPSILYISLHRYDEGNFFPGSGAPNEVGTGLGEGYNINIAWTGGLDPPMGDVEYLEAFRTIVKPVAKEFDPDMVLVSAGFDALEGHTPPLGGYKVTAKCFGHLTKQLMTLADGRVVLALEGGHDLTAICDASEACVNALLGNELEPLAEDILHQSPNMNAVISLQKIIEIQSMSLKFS
Histone deacetylase 1, sequence (Q13547 whole entry, the tested form may be a part): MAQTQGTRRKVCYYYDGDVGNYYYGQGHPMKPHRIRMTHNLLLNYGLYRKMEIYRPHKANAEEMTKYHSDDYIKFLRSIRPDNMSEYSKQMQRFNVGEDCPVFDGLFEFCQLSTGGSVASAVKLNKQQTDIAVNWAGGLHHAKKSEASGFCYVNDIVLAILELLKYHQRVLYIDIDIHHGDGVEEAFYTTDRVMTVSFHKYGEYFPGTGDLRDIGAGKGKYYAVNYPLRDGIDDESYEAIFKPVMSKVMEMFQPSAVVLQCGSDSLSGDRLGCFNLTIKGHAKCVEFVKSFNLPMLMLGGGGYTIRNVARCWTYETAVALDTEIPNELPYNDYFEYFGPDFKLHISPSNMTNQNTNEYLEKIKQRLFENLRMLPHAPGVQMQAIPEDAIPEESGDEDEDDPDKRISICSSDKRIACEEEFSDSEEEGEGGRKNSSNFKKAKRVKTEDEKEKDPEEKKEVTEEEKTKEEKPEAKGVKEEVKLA
Histone deacetylase 2, sequence (Q92769 whole entry, the tested form may be a part): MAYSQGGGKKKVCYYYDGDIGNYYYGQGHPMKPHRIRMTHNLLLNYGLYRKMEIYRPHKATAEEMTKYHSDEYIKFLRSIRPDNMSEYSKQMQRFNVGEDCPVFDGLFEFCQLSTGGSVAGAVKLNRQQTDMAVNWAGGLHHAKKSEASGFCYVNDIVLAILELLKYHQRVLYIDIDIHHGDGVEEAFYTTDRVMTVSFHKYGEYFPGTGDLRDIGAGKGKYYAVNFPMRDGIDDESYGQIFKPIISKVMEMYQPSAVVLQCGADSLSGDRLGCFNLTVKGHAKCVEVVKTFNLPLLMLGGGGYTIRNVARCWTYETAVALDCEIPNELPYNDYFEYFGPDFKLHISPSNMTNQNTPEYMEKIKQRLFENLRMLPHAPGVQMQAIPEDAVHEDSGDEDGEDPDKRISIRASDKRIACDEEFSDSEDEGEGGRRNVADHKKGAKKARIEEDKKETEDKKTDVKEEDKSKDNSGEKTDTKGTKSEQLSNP

Activity [1]: 101%
Activity (Histone deacetylase 3 [2]): 84.1%
Activity [3]: 92.6%
Activity [4]: 101%
Activity (Histone deacetylase 1): 12.3%
Activity [7]: 105%
Activity (Histone deacetylase 3 [8]): 20.7%
Activity (Histone deacetylase 2): 12.8%
Activity (Histone deacetylase 3 [9]): 54.9%
SMILES: NC(=O)c1cccc2[nH]c(-c3ccc(NCc4ccc(C(=O)Nc5ccccc5N)cc4)cc3)nc12
Activity (HL-60 [5]): Active
Activity (HL-60 [6]): Dose-Dependent Effect
